Assay results published in patent US12071453B2, “Neuroactive steroids, compositions, and uses thereof” (Sage Therapeutics, Inc., priority 2013, dated 2024).
pIC50: −log10 of the molar value.

How the values were obtained:
[1] = molecular target: T1, recombinant α4β3δ GABAA receptors (Homo sapiens, UniProt P28472+P48169); assay: Manual patch clamp electrophysiology in CHO cells transiently transfected with α4β3δ; type: cell-based; conditions: 10 μM compound, 2 μM GABA (EC20), read-out: GABA (α4β3δ) Manual patch in CHO, % efficacy at 10 μM
T1 construct: expressed in transfected cells; host or cells: CHO cells, transiently transfected (Lipofectamine)
T1 sequence (P48169 36-554): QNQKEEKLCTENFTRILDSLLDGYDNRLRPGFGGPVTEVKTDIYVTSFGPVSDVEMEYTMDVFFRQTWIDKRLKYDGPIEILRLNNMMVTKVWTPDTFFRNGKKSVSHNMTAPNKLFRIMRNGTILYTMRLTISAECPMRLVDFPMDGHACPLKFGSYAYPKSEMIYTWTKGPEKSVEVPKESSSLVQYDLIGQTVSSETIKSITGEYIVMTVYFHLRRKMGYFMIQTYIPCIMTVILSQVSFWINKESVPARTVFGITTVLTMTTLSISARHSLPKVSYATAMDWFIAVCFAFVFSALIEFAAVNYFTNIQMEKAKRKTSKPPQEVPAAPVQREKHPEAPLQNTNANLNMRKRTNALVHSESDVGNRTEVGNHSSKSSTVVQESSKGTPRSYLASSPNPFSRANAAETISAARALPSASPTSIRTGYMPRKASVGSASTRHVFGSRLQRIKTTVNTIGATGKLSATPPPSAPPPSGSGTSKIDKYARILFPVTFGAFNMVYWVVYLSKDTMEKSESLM
T1 sequence (P28472 26-473): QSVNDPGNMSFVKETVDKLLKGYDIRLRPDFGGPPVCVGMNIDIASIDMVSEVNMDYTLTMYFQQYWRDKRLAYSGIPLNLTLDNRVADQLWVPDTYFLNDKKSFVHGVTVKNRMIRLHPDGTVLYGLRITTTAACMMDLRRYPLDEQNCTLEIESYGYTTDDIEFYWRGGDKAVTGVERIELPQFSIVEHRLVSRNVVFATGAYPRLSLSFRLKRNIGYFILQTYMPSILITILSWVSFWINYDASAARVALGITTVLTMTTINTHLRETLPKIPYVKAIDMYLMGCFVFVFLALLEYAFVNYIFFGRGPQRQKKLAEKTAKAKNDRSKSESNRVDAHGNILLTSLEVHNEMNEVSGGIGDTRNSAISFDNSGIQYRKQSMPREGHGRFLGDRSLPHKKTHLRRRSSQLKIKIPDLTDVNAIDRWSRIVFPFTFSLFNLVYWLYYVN
T1 sequence (O14764 25-452 partner): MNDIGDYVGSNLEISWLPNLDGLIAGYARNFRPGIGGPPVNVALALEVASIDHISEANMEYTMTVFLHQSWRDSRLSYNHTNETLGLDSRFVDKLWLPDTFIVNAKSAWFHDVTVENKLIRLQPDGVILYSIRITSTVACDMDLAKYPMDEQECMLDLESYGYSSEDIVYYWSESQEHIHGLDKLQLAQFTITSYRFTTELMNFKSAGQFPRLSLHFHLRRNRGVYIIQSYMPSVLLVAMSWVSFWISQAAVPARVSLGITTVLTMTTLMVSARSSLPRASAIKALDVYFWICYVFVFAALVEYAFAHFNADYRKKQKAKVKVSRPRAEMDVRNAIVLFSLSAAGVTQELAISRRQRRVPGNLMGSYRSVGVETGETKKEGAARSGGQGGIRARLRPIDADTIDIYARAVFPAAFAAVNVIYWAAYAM

[2] = molecular target: T2, recombinant α1β2γ2 GABAA receptors (Homo sapiens, UniProt P14867+P47870); assay: Patch clamp electrophysiology (QPatch) in LTK cells stably transfected with α1β2γ2; type: cell-based; conditions: 10 μM compound, 2 μM GABA (EC20), read-out: GABA (α1β2γ2) Qpatch in Ltk, % efficacy at 10 μM
T2 construct: expressed in transfected cells; host or cells: LTK cells, stably transfected
T2 sequence (P14867 28-456): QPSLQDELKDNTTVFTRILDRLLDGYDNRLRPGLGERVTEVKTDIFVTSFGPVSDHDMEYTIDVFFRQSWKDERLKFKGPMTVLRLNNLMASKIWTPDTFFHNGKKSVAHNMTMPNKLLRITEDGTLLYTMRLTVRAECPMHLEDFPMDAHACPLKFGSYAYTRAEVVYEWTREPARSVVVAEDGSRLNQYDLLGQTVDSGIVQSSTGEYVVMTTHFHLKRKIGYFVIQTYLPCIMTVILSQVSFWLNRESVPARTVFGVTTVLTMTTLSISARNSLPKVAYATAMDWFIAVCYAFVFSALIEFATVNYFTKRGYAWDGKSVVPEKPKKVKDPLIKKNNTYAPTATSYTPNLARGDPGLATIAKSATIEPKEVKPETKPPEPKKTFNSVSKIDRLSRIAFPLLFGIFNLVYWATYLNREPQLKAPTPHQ
T2 sequence (P47870 26-512): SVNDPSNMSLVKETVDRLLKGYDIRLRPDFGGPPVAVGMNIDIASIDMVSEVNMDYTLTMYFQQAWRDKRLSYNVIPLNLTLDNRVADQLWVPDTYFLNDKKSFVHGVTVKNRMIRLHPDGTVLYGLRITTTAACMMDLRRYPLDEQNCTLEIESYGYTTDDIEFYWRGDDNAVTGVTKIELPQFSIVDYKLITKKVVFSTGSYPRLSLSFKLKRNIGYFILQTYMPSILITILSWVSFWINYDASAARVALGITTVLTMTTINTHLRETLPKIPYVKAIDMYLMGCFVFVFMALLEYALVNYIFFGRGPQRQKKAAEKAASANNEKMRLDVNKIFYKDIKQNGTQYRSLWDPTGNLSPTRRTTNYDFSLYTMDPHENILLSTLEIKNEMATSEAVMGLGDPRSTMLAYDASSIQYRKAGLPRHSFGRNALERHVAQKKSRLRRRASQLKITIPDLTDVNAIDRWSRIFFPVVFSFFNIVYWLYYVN
T2 sequence (P18507 40-475 partner): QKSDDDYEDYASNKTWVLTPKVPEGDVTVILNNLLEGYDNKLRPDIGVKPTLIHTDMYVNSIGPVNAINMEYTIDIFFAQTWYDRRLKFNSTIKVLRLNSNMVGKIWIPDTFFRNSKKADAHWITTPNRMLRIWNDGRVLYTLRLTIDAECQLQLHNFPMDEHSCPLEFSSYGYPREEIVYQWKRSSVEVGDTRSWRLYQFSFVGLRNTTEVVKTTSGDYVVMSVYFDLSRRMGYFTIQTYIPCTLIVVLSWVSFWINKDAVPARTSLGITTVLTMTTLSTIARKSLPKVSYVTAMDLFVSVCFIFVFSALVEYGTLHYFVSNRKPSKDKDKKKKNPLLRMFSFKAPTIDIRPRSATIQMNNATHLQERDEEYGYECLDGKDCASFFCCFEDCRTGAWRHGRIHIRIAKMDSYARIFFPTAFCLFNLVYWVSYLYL

[3] = molecular target: [35S]-TBPS binding in rat brain cortical membranes; assay: Steroid inhibition of [35S]-TBPS binding, rat brain cortical membranes; conditions: 3 nM [35S]-TBPS, in the presence of 5 μM GABA, read-out: 35S-TBPS Radioligand Displacement (IC50)
Method in brief: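 Washed P2 cortical membranes from Sprague-Dawley rats were incubated 90 min at room temperature with 3 nM [35S]-TBPS, 5 μM GABA and test steroid (0.5% DMSO) in 200 mM NaCl/50 mM Na–K phosphate, pH 7.4. Nonspecific binding was defined with 2 μM unlabeled TBPS, and samples were filtered and counted. IC50 and Imax came from non-linear fits, reported as mean ± SEM.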

[4] = molecular target: T3, GABAA receptors composed of the α1β2γ2 subunits (GABRA1/GABRB2/GABRG2) (Homo sapiens, UniProt P14867+P47870); assay: Two Electrode Voltage Clamp (TEVC), GABA receptor potentiation in Xenopus laevis oocytes, α1β2γ2; type: cell-based; conditions: 10 μM compound, 10 μM GABA, read-out: GABA (α1β2γ2) % efficacy at 10 μM
T3 construct: expressed in transfected cells; host or cells: Xenopus laevis oocytes, injected (ratio 1:1:1)
T3 sequence (P14867 28-456): as the sequence (P14867 28-456) above
T3 sequence (P47870 26-512): as the sequence (P47870 26-512) above
T3 sequence (P18507 40-475 partner): as the sequence (P18507 40-475 partner) above

[5] = molecular target: T4, GABAA receptors composed of the α4β3δ subunits (GABRA4/GABRB3/GABRD) (Homo sapiens, UniProt P28472+P48169); assay: Two Electrode Voltage Clamp (TEVC), GABA receptor potentiation in Xenopus laevis oocytes, α4β3δ; type: cell-based; conditions: 10 μM compound, 3 μM GABA, read-out: GABA (α4β3δ) % efficacy at 10 μM
T4 construct: expressed in transfected cells; host or cells: Xenopus laevis oocytes, injected (ratio 5:1:5)
T4 sequence (P48169 36-554): as the sequence (P48169 36-554) above
T4 sequence (P28472 26-473): as the sequence (P28472 26-473) above
T4 sequence (O14764 25-452 partner): as the sequence (O14764 25-452 partner) above
Method: The Two Electrode Voltage Clamp (TEVC) technique was used to investigate the effects of compounds at a concentration of 10 μM on GABAA receptors composed of the α1β2γ2 or α4β3δ subunits expressed in oocytes from the Xenopus laevis. GABA-evoked currents were recorded from oocytes that expressed the GABA receptors and the modulatory effects of the test items on these currents were investigated.
Ovaries were harvested from Xenopus laevis females that had been deeply anesthetized by cooling at 4° C. and immersion in Tricaine methanesulfonate (MS-222 at a concentration of 150 mg/L) in sodium bicarbonate (300 mg/L). Once anesthetized the animal was decapitated and pithed following the rules of animal rights from the Geneva canton. A small piece of ovary was isolated for immediate preparation while the remaining part was placed at 4° C. in a sterile Barth solution containing in mM NaCl 88, KCl 1, NaHCO3 2.4, HEPES 10, MgSO4·7H2O 0.82, Ca(NO3)2·4H2O 0.33, CaCl2·6H2O 0.41, at pH 7.4, and supplemented with 20 μg/ml of kanamycin, 100 unit/ml penicillin and 100 μg/ml streptomycin. All recordings were performed at 18° C. and cells were super-fused with medium containing in mM: NaCl 82.5, KCl 2.5, HEPES 5, CaCl2·2H2O, ·6H2O 1, pH 7.4.
Plasmids containing the RNAs of the human GABRA1/GABRB2/GABRG2 and GABRA4/GABRB3/GABRD genes were injected into oocytes using a proprietary automated injection device (Hogg el al., J. Neurosci. Methods, (2008) 169: 65-75). These genes encode for the α1β2γ2 and α4β3δ GABAA subunits respectively. Receptor expression was assessed using electrophysiology at least two days later. The ratio of RNA injection for α1β2γ2 was 1:1:1 and for α4β3δ was 5:1:5. Electrophysiological recordings were made using an automated process equipped with standard TEVC and data were captured and analyzed using a proprietary data acquisition and analysis software running under Matlab (Mathworks Inc.). The membrane potential of the oocytes was maintained at −80 mV throughout the experiments. To explore the effects of proprietary compounds, currents were evoked by applying 10 μM (α1β2γ2) or 3 μM (α4β3δ) GABA for 30 s. These concentrations approximated the EC50 concentration of GABA at each receptor subtype. Oocytes were then re-exposed to GABA again for 30 s. 15 s after beginning the GABA application, test article was co-applied at a concentration of 10 μM for 15 s. Potentiation of the peak current was assessed. Data was filtered at 10 Hz, captured at 100 Hz and analyzed using proprietary data acquisition and analysis software running under Matlab (Mathworks Inc.). For statistical analysis values were computed either with Excel (Microsoft) or Matlab (mathworks Inc.). To obtain mean measurements with standard deviations, all experiments were carried out using at least three cells.

COC[C@]12CC[C@@](C)(O)C[C@@H]1CC[C@H]1[C@@H]3CC[C@H](C(=O)Cn4nccn4)[C@@]3(C)CC[C@@H]12 [Compound 1]
Emax at 10 µM [1]: > 500% | Emax at 10 µM [2]: 100 to 500% | pIC50 [3]: 7.30 to 8.00

COC[C@]12CC[C@@](C)(O)C[C@@H]1CC[C@H]1[C@@H]3CC[C@H](C(=O)Cn4ccnn4)[C@@]3(C)CC[C@@H]12 [Compound 3]
pIC50 [3]: < 6.30 | melting point: 72 to 74 °C

COC[C@]12CC[C@@](C)(O)C[C@@H]1CC[C@H]1[C@@H]3CC[C@H](C(=O)CN4CCN(C)CC4)[C@@]3(C)CC[C@@H]12 [Compound 8]
pIC50 [3]: < 6.30 | melting point: 136 to 137 °C

COC[C@]12CC[C@@](C)(O)C[C@@H]1CC[C@H]1[C@@H]3CC[C@H](C(=O)Cn4cc(C#N)cn4)[C@@]3(C)CC[C@@H]12 [Compound 13]
Emax at 10 µM [4]: 1000 to 1500% | pIC50 [3]: 7.00 to 7.30 | melting point: 141 to 142 °C

COC[C@]12CC[C@@](C)(O)C[C@@H]1CC[C@H]1[C@@H]3CC[C@H](C(=O)Cn4ncnn4)[C@@]3(C)CC[C@@H]12 [Compound 14]
Emax at 10 µM [1]: > 500% | Emax at 10 µM [2]: 100 to 500% | pIC50 [3]: 7.30 to 8.00 | melting point: 72 to 75 °C

COC[C@]12CC[C@@](C)(O)C[C@@H]1CC[C@H]1[C@@H]3CC[C@H](C(=O)Cn4cnnn4)[C@@]3(C)CC[C@@H]12 [Compound 15]
Emax at 10 µM [1]: 100 to 500% | Emax at 10 µM [2]: > 500% | pIC50 [3]: 6.30 to 7.00 | melting point: 88 to 91 °C

COC[C@]12CC[C@@](C)(O)C[C@@H]1CC[C@H]1[C@@H]3CC[C@H](C(=O)Cn4nnnc4C)[C@@]3(C)CC[C@@H]12 [Compound 16]
Emax at 10 µM [1]: > 500% | Emax at 10 µM [2]: > 500% | pIC50 [3]: 7.30 to 8.00

COC[C@]12CC[C@@](C)(O)C[C@@H]1CC[C@H]1[C@@H]3CC[C@H](C(=O)Cn4ccc(C#N)n4)[C@@]3(C)CC[C@@H]12 [Compound 19]
Emax at 10 µM [1]: 100 to 500% | Emax at 10 µM [2]: 100 to 500%

COC[C@]12CC[C@@](C)(O)C[C@H]1CC[C@H]1[C@@H]3CC[C@H](C(=O)Cn4cc(C#N)cn4)[C@@]3(C)CC[C@@H]12 [Compound 27]
Emax at 10 µM [4]: 1000 to 1500% | pIC50 [3]: > 8.00 | melting point: 176 to 178 °C

COC[C@]12CC[C@@](C)(O)C[C@H]1CC[C@H]1[C@@H]3CC[C@H](C(=O)Cn4nnnc4C)[C@@]3(C)CC[C@@H]12 [Compound 30]
Emax at 10 µM [1]: > 500% | Emax at 10 µM [2]: 100 to 500% | pIC50 [3]: > 8.00

COC[C@]12CC[C@@](C)(O)C[C@H]1CC[C@H]1[C@@H]3CC[C@H](C(=O)Cn4cc(Cl)cn4)[C@@]3(C)CC[C@@H]12 [Compound 34]
Emax at 10 µM [4]: 50 to 500% | pIC50 [3]: > 8.00 | melting point: 163 to 165 °C

COC[C@]12CC[C@@](C)(O)C[C@@H]1CC[C@H]1[C@@H]3CC[C@H](C(=O)Cn4nc5ccc(Cl)cc5n4)[C@@]3(C)CC[C@@H]12 [Compound 35]
Emax at 10 µM [1]: 100 to 500% | Emax at 10 µM [2]: 100 to 500% | pIC50 [3]: 7.30 to 8.00

COC[C@]12CC[C@@](C)(O)C[C@@H]1CC[C@H]1[C@@H]3CC[C@H](C(=O)Cn4nnc5ccc(Cl)cc54)[C@@]3(C)CC[C@@H]12 [Compound 36]
Emax at 10 µM [1]: 100 to 500% | Emax at 10 µM [2]: 100 to 500% | pIC50 [3]: 7.30 to 8.00

COC[C@]12CC[C@@](C)(O)C[C@@H]1CC[C@H]1[C@@H]3CC[C@H](C(=O)Cn4nnc5cc(Cl)ccc54)[C@@]3(C)CC[C@@H]12 [Compound 37]
Emax at 10 µM [1]: > 500% | Emax at 10 µM [2]: > 500% | pIC50 [3]: 7.30 to 8.00

COC[C@]12CC[C@@](C)(O)C[C@@H]1CC[C@H]1[C@@H]3CC[C@H](C(=O)Cn4nc5ccc(F)cc5n4)[C@@]3(C)CC[C@@H]12 [Compound 43]
Emax at 10 µM [1]: 100 to 500% | Emax at 10 µM [2]: > 500% | pIC50 [3]: > 8.00

COC[C@]12CC[C@@](C)(O)C[C@@H]1CC[C@H]1[C@@H]3CC[C@H](C(=O)Cn4nnc5ccc(F)c(F)c54)[C@@]3(C)CC[C@@H]12 [Compound 52]
Emax at 10 µM [1]: > 500% | Emax at 10 µM [2]: 100 to 500% | pIC50 [3]: 7.30 to 8.00

COC[C@]12CC[C@@](C)(O)C[C@@H]1CC[C@H]1[C@@H]3CC[C@H](C(=O)Cn4nc5ccc(F)c(F)c5n4)[C@@]3(C)CC[C@@H]12 [Compound 54]
Emax at 10 µM [1]: > 500% | Emax at 10 µM [2]: 100 to 500% | pIC50 [3]: 7.30 to 8.00

COC[C@]12CC[C@@](C)(O)C[C@@H]1CC[C@H]1[C@@H]3CC[C@H](C(=O)Cn4nc5cc(F)cc(F)c5n4)[C@@]3(C)CC[C@@H]12 [Compound 55]
Emax at 10 µM [1]: > 500% | Emax at 10 µM [2]: > 500% | pIC50 [3]: 7.00 to 7.30

COC[C@]12CC[C@@](C)(O)C[C@H]1CC[C@H]1[C@@H]3CC[C@H](C(=O)Cn4nc5ccc(Cl)cc5n4)[C@@]3(C)CC[C@@H]12 [Compound 76]
Emax at 10 µM [1]: > 500% | Emax at 10 µM [2]: > 500% | pIC50 [3]: > 8.00

COC[C@]12CC[C@@](C)(O)C[C@H]1CC[C@H]1[C@@H]3CC[C@H](C(=O)Cn4nc5ccc(F)c(F)c5n4)[C@@]3(C)CC[C@@H]12 [Compound 79]
Emax at 10 µM [4]: 500 to 1000% | Emax at 10 µM [5]: 1000 to 1500% | pIC50 [3]: > 8.00

COC[C@]12CC[C@@](C)(O)C[C@@H]1CC[C@H]1[C@@H]3CC[C@H](C(=O)Cn4nnc5cc(F)c(F)cc54)[C@@]3(C)CC[C@@H]12 [Compound 98]
Emax at 10 µM [4]: 500 to 1000% | Emax at 10 µM [5]: 1000 to 1500% | pIC50 [3]: 7.00 to 7.30

COC[C@]12CC[C@@](C)(O)C[C@@H]1CC[C@H]1[C@@H]3CC[C@H](C(=O)Cn4ncc5nccnc54)[C@@]3(C)CC[C@@H]12 [Compound 102]
Emax at 10 µM [4]: 50 to 500% | Emax at 10 µM [5]: 50 to 500% | pIC50 [3]: 6.30 to 7.00

COC[C@]12CC[C@@](C)(O)C[C@@H]1CC[C@H]1[C@@H]3CC[C@H](C(=O)Cn4nc5ccc(OC(F)(F)F)cc5n4)[C@@]3(C)CC[C@@H]12 [Compound 104]
Emax at 10 µM [4]: 50 to 500% | Emax at 10 µM [5]: 1000 to 1500% | pIC50 [3]: 7.00 to 7.30

COC[C@]12CC[C@@](C)(O)C[C@@H]1CC[C@H]1[C@@H]3CC[C@H](C(=O)Cn4ncc5cc(Cl)ccc54)[C@@]3(C)CC[C@@H]12 [Compound 105]
Emax at 10 µM [4]: 50 to 500% | Emax at 10 µM [5]: 1000 to 1500% | pIC50 [3]: < 6.30

COC[C@]12CC[C@@](C)(O)C[C@@H]1CC[C@H]1[C@@H]3CC[C@H](C(=O)Cn4cc5cc(Cl)ccc5n4)[C@@]3(C)CC[C@@H]12 [Compound 106]
Emax at 10 µM [4]: 50 to 500% | Emax at 10 µM [5]: 1000 to 1500% | pIC50 [3]: 6.30 to 7.00

COC[C@]12CC[C@@](C)(O)C[C@@H]1CC[C@H]1[C@@H]3CC[C@H](C(=O)Cn4nc5ccc(Cl)c(F)c5n4)[C@@]3(C)CC[C@@H]12 [Compound 109]
Emax at 10 µM [4]: 50 to 500% | Emax at 10 µM [5]: 1000 to 1500% | pIC50 [3]: 7.00 to 7.30

COC[C@]12CC[C@@](C)(O)C[C@@H]1CC[C@H]1[C@@H]3CC[C@H](C(=O)Cn4cc5ccc(Cl)cc5n4)[C@@]3(C)CC[C@@H]12 [Compound 113]
Emax at 10 µM [4]: 50 to 500% | Emax at 10 µM [5]: 500 to 1000% | pIC50 [3]: 6.30 to 7.00
